Assay results from US10064858B2, “Methods and compositions for treating bacterial infections with iron chelators” (THE UNITED STATES OF AMERICA, AS REPRESENTED BY THE …, priority 2011, dated 2018).
Where two headings read alike, the source gives them in different places.

Legend:
Assay type in all cases: cell-based
[1] = tested on: Acinetobacter baumannii; assay: MIC, CLSI microdilution (Tables 1 and 6)
Description: (§1) The minimal inhibitory concentration (MIC) of non-toxic iron chelators was determined against standard strains of MDR bacteria and clinical isolates according to the guidelines of the Clinical and Laboratory Standards Institute (CLSI).
(§2) Individual MICs were determined following the microdilution method recommended by CLSI in cationic-adjusted Mueller-Hinton Broth (CAMHB), or M9 media. […] Tests were performed in triplicate. MIC of iron chelators were determined for noscomial ESKAPE pathogens.
(§3) MIC were determined in CAMHB media as described above in Example 8.

[2] = tested on: E. coli; assay: MIC, CLSI microdilution (Tables 1 and 6); details: Escherichia coli, Table 1, read-out: MIC of Iron Chelators
Description: as §1, §2, §3

[3] = tested on: K. pneumonia; assay: MIC, CLSI microdilution (Tables 1 and 6); details: Klebsiella pneumoniae, Table 1, read-out: MIC of Iron Chelators
Description: as §1, §2, §3

[4] = tested on: P. aeruginosa; assay: MIC, CLSI microdilution (Tables 1 and 6); details: Pseudomonas aeruginosa, Table 1, read-out: MIC of Iron Chelators
Description: as §1, §2, §3

[5] = tested on: S. aureus; assay: MIC, CLSI microdilution (Tables 1 and 6); details: Staphylococcus aureus, Table 1, read-out: MIC of Iron Chelators
Description: as §1, §2, §3

[6] = tested on: Acinetobacter baumannii; assay: MIC in RPMI1640 media (Table 2)
Description: (§4) […] […] Tests were performed in triplicate. MIC of iron chelators were determined for noscomial ESKAPE pathogens.
(§5) This media is closer to the iron levels in the human body. MICs are in ug/mL.

[7] = tested on: E. coli; assay: MIC in RPMI1640 media (Table 2)
Description: as §4, §5

[8] = tested on: K. pneumonia; assay: MIC in RPMI1640 media (Table 2); details: Klebsiella pneumoniae
Description: as §4, §5

[9] = tested on: P. aeruginosa; assay: MIC in RPMI1640 media (Table 2); details: Pseudomonas aeruginosa
Description: as §4, §5

[10] = tested on: clinical isolates of A. baumannii; assay: MIC for clinical isolates in RPMI (low iron) media (Table 4); parameters: key to MIC of Iron Chelators: NG = no growth in table 4; details: for MIC: Acinetobacter baumannii
Description: as §4
For a number of strains, the iron chelators produced no growth of bacteria (NG).

[11] = tested on: multi-drug resistant bacterial species; assay: Time kill method, synergy with rifampin (summary)
Description: Reductions in colony forming units (CFU)/mL were determined over time (time-kill assay) after exposure to VK28 and deferiprone (DFP), the two iron chelators that performed best in MIC assays when compared to controls. To better represent the iron content found in the human body, MIC and time-kill assays were also determined in minimal media and tissue culture media. Time-Kill assays were performed as previously described in G. P. Neupane et al., “In vitro time-kill activities of ciprofloxacin alone and in combination with the iron chelator deferasirox against Vibrio vulnificus,” European Journal of Clinical Microbiology and Infectious Diseases, 407-410 (2010); and R. L. White, et al., “Comparison of Three Different In Vitro Methods of Detecting synergy: Time-Kill, Checkerboard, and E test,” Journal of Antimicrobial Agents and Chemotherapy, 1914-1918 (1996). Initial inocula, for example 1×10^6 CFU/mL or 1×10^7 CFU/mL were challenged with iron chelator with and/or without an antibiotic. Cells were allowed to grow in CAMHB at 37° C. for 24 hours. Time-kill results were analyzed by determining the change in log 10 numbers of CFU/ml at 0, 6, and 24 h, compared to counts at 0 h. Antimicrobials were considered bactericidal at the lowest concentration that reduced the size of the original inoculum by >3 log 10 CFU/ml (99.9%) over each of the time periods and were considered bacteriostatic if the inoculum's size was reduced by 0 to <3 log 10 CFU/ml.

[12] = ATCC17978, ATCC 17978, Table 1, read-out: MIC of Iron Chelators
[13] = ATCC19606, ATCC 19606, Table 1, read-out: MIC of Iron Chelators
[14] = ATCC43888, ATCC 43888 (0157:H7)
[15] = ATCC17978, ATCC 17978, read-out: MIC of Iron Chelators
[16] = ATCC19606, ATCC 19606, read-out: MIC of Iron Chelators
[17] = Escherichia coli, 35718, read-out: MIC of Iron Chelators
[18] = Escherichia coli, ATCC43888, ATCC 43888 (0157:H7), read-out: MIC of Iron Chelators
[19] = ATCC700603, ATCC 700603, read-out: MIC of Iron Chelators
[20] = BAA2146, BAA-2146, read-out: MIC of Iron Chelators
[21] = ATCC27853, ATCC 27853, read-out: MIC of Iron Chelators
[22] = PAO1, read-out: MIC of Iron Chelators
[23] = AB3638, read-out: MIC of Iron Chelators
[24] = AB3806, read-out: MIC of Iron Chelators
[25] = AB4025, read-out: MIC of Iron Chelators
[26] = AB4026, read-out: MIC of Iron Chelators
[27] = AB4027, read-out: MIC of Iron Chelators
[28] = AB4052, read-out: MIC of Iron Chelators
[29] = AB4269, read-out: MIC of Iron Chelators
[30] = AB4448, read-out: MIC of Iron Chelators
[31] = AB4456, read-out: MIC of Iron Chelators
[32] = AB4490, read-out: MIC of Iron Chelators
[33] = AB4498, read-out: MIC of Iron Chelators
[34] = AB4795, read-out: MIC of Iron Chelators
[35] = AB4857, read-out: MIC of Iron Chelators
[36] = AB4878, read-out: MIC of Iron Chelators
[37] = AB4932, read-out: MIC of Iron Chelators
[38] = AB4957, read-out: MIC of Iron Chelators
[39] = AB4991, read-out: MIC of Iron Chelators
[40] = AB5001, read-out: MIC of Iron Chelators
[41] = AB5075, read-out: MIC of Iron Chelators
[42] = AB5197, read-out: MIC of Iron Chelators
[43] = AB5256, read-out: MIC of Iron Chelators
[44] = AB5674, read-out: MIC of Iron Chelators
[45] = AB5711, read-out: MIC of Iron Chelators

Cc1c(O)c(=O)ccn1C [ApoL1, 3-hydroxy-1,2-dimethyl-4(1H)-pyridone]
64 µg/mL: MIC [6, 15] | MIC [10, 37] | MIC [10, 45]
250 µg/mL: MIC ([3]; BAA2146, BAA-2146) | MIC ([4]; PAO1) | MIC [7, 18] | MIC [8, 19] | MIC [8, 20] | MIC [10, 36]
500 µg/mL: MIC ([2]; ATCC35218, ATCC 35218) | MIC [2, 14] | MIC ([3]; ATCC700603, ATCC 700603) | MIC [7, 17] | MIC [9, 21]
NG: MIC of Iron Chelators ([10]; AB967) | MIC of Iron Chelators ([10]; AB2828) | MIC of Iron Chelators ([10]; AB3340) | MIC of Iron Chelators ([10]; AB3560) | MIC of Iron Chelators ([10]; AB3785) | MIC of Iron Chelators ([10]; AB3917) | MIC of Iron Chelators ([10]; AB3927)
125 µg/mL: MIC [1, 12] | MIC [1, 13] | MIC [6, 16] | MIC [9, 22] | MIC [10, 23] | MIC [10, 24] | MIC [10, 25] | MIC [10, 26] | MIC [10, 27] | MIC [10, 28] | MIC [10, 29] | MIC [10, 30] | MIC [10, 31] | MIC [10, 32] | MIC [10, 33] | MIC [10, 34] | MIC [10, 35] | MIC [10, 38] | MIC [10, 39] | MIC [10, 40] | MIC [10, 41] | MIC [10, 42] | MIC [10, 43] | MIC [10, 44]
strong synergy: synergy with rifampin, time kill method [11]
> 500 µg/mL: MIC ([4]; ATCC27853, ATCC 27853) | MIC ([5]; ATCC25923, ATCC 25923) | MIC ([5]; ATCC 43300 (MRSA))

CNC(=O)c1c(O)c(=O)cc(C)n1C1CC1 [Apo6619, 1-cyclopropyl-3-hydroxy-6-methyl-4-oxo-1,4-dihydro-pyridine-2-carboxylic acid methylamide]
250 µg/mL: MIC [1, 12] | MIC [1, 13] | MIC ([2]; ATCC35218, ATCC 35218) | MIC [2, 14] | MIC [7, 17] | MIC [7, 18] | MIC [10, 23] | MIC [10, 24] | MIC ([10]; AB3917, read-out: MIC of Iron Chelators) | MIC [10, 25] | MIC [10, 26] | MIC [10, 27] | MIC [10, 28] | MIC [10, 30] | MIC [10, 31] | MIC [10, 32] | MIC [10, 33] | MIC [10, 34] | MIC [10, 35] | MIC [10, 36] | MIC [10, 37] | MIC [10, 38] | MIC [10, 40] | MIC [10, 41] | MIC [10, 42] | MIC [10, 43] | MIC [10, 44] | MIC [10, 45]
64 µg/mL: MIC [6, 15]
> 500 µg/mL: MIC ([3]; ATCC700603, ATCC 700603) | MIC ([3]; BAA2146, BAA-2146) | MIC ([4]; ATCC27853, ATCC 27853) | MIC ([4]; PAO1) | MIC ([5]; ATCC25923, ATCC 25923) | MIC ([5]; ATCC 43300 (MRSA)) | MIC [9, 21]
125 µg/mL: MIC [6, 16] | MIC ([10]; AB3785, read-out: MIC of Iron Chelators) | MIC [10, 29] | MIC [10, 39]
strong synergy: synergy with rifampin, time kill method [11]
500 µg/mL: MIC [8, 19] | MIC [8, 20] | MIC [9, 22]
NG: MIC of Iron Chelators ([10]; AB967) | MIC of Iron Chelators ([10]; AB2828) | MIC of Iron Chelators ([10]; AB3340) | MIC of Iron Chelators ([10]; AB3560) | MIC of Iron Chelators ([10]; AB3927)
